Experimental data published in article PMC10209615, “Pharmacological inhibition of LSD1 suppresses growth of hepatocellular carcinoma by inducing GADD45B” (MedComm, 2023).
pIC50: −log10 of the molar value.

How the values were obtained:
Experiment in all cases: Kinase activity detection (Eurofins)
Type in all cases: biochemical
Axl = target: T1, Axl (Homo sapiens, UniProt P30530); details: ZY0511 1 µM, read-out: Activation rate
T1 construct: purchased Eurofins Pharma Discovery Services (KinaseProfiler)
Description: (§1) The activity of ZY0511 against 104 cancer‐related kinases was carried out by Eurofins Pharma Discovery Services (Celle Lévescault, France).

PKCι = target: T2, PKCι (Homo sapiens, UniProt P41743); details: ZY0511 1 µM, read-out: Inhibition rate
T2 construct: purchased Eurofins Pharma Discovery Services
Description: as §1

MST3 = target: T3, MST3 (Homo sapiens, UniProt Q9Y6E0); details: ZY0511 1 µM, read-out: Inhibition rate
T3 construct: purchased Eurofins Pharma Discovery Services (KinaseProfiler)
Description: as §1

ALK = target: T4, ALK (Homo sapiens, UniProt Q9UM73); details: ZY0511 1 µM, read-out: Activation rate
T4 construct: purchased Eurofins Pharma Discovery Services (KinaseProfiler)
Description: as §1

TAK1 = target: T5, TAK1 (Homo sapiens, UniProt O43318); details: ZY0511 1 µM, read-out: Inhibition rate
T5 construct: purchased Eurofins Pharma Discovery Services
Description: as §1

Hck = target: T6, Hck (Homo sapiens, UniProt P08631); details: ZY0511 1 µM, read-out: Inhibition rate
T6 construct: purchased Eurofins Pharma Discovery Services (KinaseProfiler)
Description: as §1

PKCµ = target: T7, PKCµ (Homo sapiens, UniProt Q15139); details: ZY0511 1 µM, read-out: Inhibition rate
T7 construct: purchased Eurofins Pharma Discovery Services
Description: as §1

PKBα = target: T8, PKBα (Homo sapiens, UniProt P31749); details: ZY0511 1 µM, read-out: Inhibition rate
T8 construct: purchased Eurofins Pharma Discovery Services (KinaseProfiler)
Description: as §1

CK1γ2 = target: T9, CK1γ2 (Homo sapiens, UniProt P78368); details: ZY0511 1 µM, read-out: Inhibition rate
T9 construct: purchased Eurofins Pharma Discovery Services
Description: as §1

B-Raf (V599E) = target: T10, B-Raf (V599E) (Homo sapiens, UniProt P15056, V600E); details: ZY0511 1 µM, read-out: Inhibition rate
T10 construct: purchased Eurofins Pharma Discovery Services (KinaseProfiler)
Description: as §1

ZAP-70 = target: T11, ZAP-70 (Homo sapiens, UniProt P43403); details: ZY0511 1 µM, read-out: Activation rate
T11 construct: purchased Eurofins Pharma Discovery Services (KinaseProfiler)
Description: as §1

ATR/ATRIP = target: T12, ATR/ATRIP (Homo sapiens, UniProt Q13535)
T12 construct: purchased Eurofins Pharma Discovery Services
Description: as §1

Ron = target: T13, Ron (Homo sapiens, UniProt Q04912); details: ZY0511 1 µM, read-out: Activation rate
T13 construct: purchased Eurofins Pharma Discovery Services (KinaseProfiler)
Description: as §1

EGFR (T790M, L858R) = target: T14, EGFR (T790M, L858R) (Homo sapiens, UniProt P00533, L858R/T790M); details: ZY0511 1 µM
T14 construct: purchased Eurofins Pharma Discovery Services (KinaseProfiler)
Description: as §1

ATM = target: T15, ATM (Homo sapiens, UniProt Q13315)
T15 construct: purchased Eurofins Pharma Discovery Services
Description: as §1

Yes = target: T16, Yes (Homo sapiens, UniProt P07947); details: ZY0511 1 µM, read-out: Inhibition rate
T16 construct: purchased Eurofins Pharma Discovery Services
Description: as §1

EGFR (T790M) = target: T17, EGFR (T790M) (Homo sapiens, UniProt P00533, T790M); details: ZY0511 1 µM
T17 construct: purchased Eurofins Pharma Discovery Services (KinaseProfiler)
Description: as §1

CDK1/CyclinB = target: T18, CDK1/CyclinB (Homo sapiens, UniProt P06493); details: ZY0511 1 µM, read-out: Activation rate
T18 construct: purchased Eurofins Pharma Discovery Services (KinaseProfiler)
Description: as §1

TrkA = target: T19, TrkA (Homo sapiens, UniProt P04629); details: ZY0511 1 µM, read-out: Activation rate
T19 construct: purchased Eurofins Pharma Discovery Services (KinaseProfiler)
Description: as §1

Met = target: T20, Met (Homo sapiens, UniProt P08581); details: ZY0511 1 µM, read-out: Inhibition rate
T20 construct: purchased Eurofins Pharma Discovery Services (KinaseProfiler)
Description: as §1

EGFR (L861Q) = target: T21, EGFR (L861Q) (Homo sapiens, UniProt P00533, L861Q); details: ZY0511 1 µM, read-out: Inhibition rate
T21 construct: purchased Eurofins Pharma Discovery Services (KinaseProfiler)
Description: as §1

CHK1 = target: T22, CHK1 (Homo sapiens, UniProt O14757); details: ZY0511 1 µM
T22 construct: purchased Eurofins Pharma Discovery Services (KinaseProfiler)
Description: as §1

PKD2 = target: T23, PKD2 (Homo sapiens, UniProt Q9BZL6); details: ZY0511 1 µM, read-out: Inhibition rate
T23 construct: purchased Eurofins Pharma Discovery Services
Description: as §1

Pim-1 = target: T24, Pim-1 (Homo sapiens, UniProt P11309); details: ZY0511 1 µM, read-out: Inhibition rate
T24 construct: purchased Eurofins Pharma Discovery Services (KinaseProfiler)
Description: as §1

PKCα = target: T25, PKCα (Homo sapiens, UniProt P17252); details: ZY0511 1 µM, read-out: Activation rate
T25 construct: purchased Eurofins Pharma Discovery Services (KinaseProfiler)
Description: as §1

cKit = target: T26, cKit (Homo sapiens, UniProt P10721); details: ZY0511 1 µM, read-out: Activation rate
T26 construct: purchased Eurofins Pharma Discovery Services (KinaseProfiler)
Description: as §1

ROCK-I = target: T27, ROCK-I (Homo sapiens, UniProt Q13464); details: ZY0511 1 µM, read-out: Inhibition rate
T27 construct: purchased Eurofins Pharma Discovery Services
Description: as §1

Wee1 = target: T28, Wee1 (Homo sapiens, UniProt P30291); details: ZY0511 1 µM, read-out: Activation rate
T28 construct: purchased Eurofins Pharma Discovery Services (KinaseProfiler)
Description: as §1

TrkC = target: T29, TrkC (Homo sapiens, UniProt Q16288); details: ZY0511 1 µM, read-out: Inhibition rate
T29 construct: purchased Eurofins Pharma Discovery Services (KinaseProfiler)
Description: as §1

FGFR1 = target: T30, FGFR1 (Homo sapiens, UniProt P11362); details: ZY0511 1 µM, read-out: Activation rate
T30 construct: purchased Eurofins Pharma Discovery Services (KinaseProfiler)
Description: as §1

cKit (D816H) = target: T31, cKit (D816H) (Homo sapiens, UniProt P10721, D816H); details: ZY0511 1 µM, read-out: Activation rate
T31 construct: purchased Eurofins Pharma Discovery Services (KinaseProfiler)
Description: as §1

Flt4 = target: T32, Flt4 (Homo sapiens, UniProt P35916)
T32 construct: purchased Eurofins Pharma Discovery Services
Description: as §1

Fes = target: T33, Fes (Homo sapiens, UniProt P07332); details: ZY0511 1 µM, read-out: Inhibition rate
T33 construct: purchased Eurofins Pharma Discovery Services (KinaseProfiler)
Description: as §1

EphB4 = target: T34, EphB4 (Homo sapiens, UniProt P54760); details: ZY0511 1 µM, read-out: Activation rate
T34 construct: purchased Eurofins Pharma Discovery Services (KinaseProfiler)
Description: as §1

IKKα = target: T35, IKKα (Homo sapiens, UniProt O15111); details: ZY0511 1 µM, read-out: Activation rate
T35 construct: purchased Eurofins Pharma Discovery Services (KinaseProfiler)
Description: as §1

[1] = target: T36, PI3 Kinase (p110α (H1047R)/p85α) (Homo sapiens, UniProt P42336, H1047R); details: ZY0511 1 µM, read-out: Inhibition rate
T36 construct: purchased Eurofins Pharma Discovery Services (KinaseProfiler)
Description: as §1

ErbB2 = target: T37, ErbB2 (Homo sapiens, UniProt P04626); details: ZY0511 1 µM, read-out: Activation rate
T37 construct: purchased Eurofins Pharma Discovery Services (KinaseProfiler)
Description: as §1

Flt3 = target: T38, Flt3 (Homo sapiens, UniProt P36888); details: ZY0511 1 µM, read-out: Inhibition rate
T38 construct: purchased Eurofins Pharma Discovery Services (KinaseProfiler)
Description: as §1

Bmx = target: T39, Bmx (Homo sapiens, UniProt P51813); details: ZY0511 1 µM, read-out: Inhibition rate
T39 construct: purchased Eurofins Pharma Discovery Services (KinaseProfiler)
Description: as §1

ZIPK = target: T40, ZIPK (Homo sapiens, UniProt O43293); details: ZY0511 1 µM, read-out: Inhibition rate
T40 construct: purchased Eurofins Pharma Discovery Services (KinaseProfiler)
Description: as §1

MAPK2 = target: T41, MAPK2 (Homo sapiens, UniProt P28482); details: ZY0511 1 µM, read-out: Activation rate
T41 construct: purchased Eurofins Pharma Discovery Services (KinaseProfiler)
Description: as §1

[2] = ZY0511 1 µM, read-out: Inhibition rate

T32 sequence (P35916 25-1363, species assumed): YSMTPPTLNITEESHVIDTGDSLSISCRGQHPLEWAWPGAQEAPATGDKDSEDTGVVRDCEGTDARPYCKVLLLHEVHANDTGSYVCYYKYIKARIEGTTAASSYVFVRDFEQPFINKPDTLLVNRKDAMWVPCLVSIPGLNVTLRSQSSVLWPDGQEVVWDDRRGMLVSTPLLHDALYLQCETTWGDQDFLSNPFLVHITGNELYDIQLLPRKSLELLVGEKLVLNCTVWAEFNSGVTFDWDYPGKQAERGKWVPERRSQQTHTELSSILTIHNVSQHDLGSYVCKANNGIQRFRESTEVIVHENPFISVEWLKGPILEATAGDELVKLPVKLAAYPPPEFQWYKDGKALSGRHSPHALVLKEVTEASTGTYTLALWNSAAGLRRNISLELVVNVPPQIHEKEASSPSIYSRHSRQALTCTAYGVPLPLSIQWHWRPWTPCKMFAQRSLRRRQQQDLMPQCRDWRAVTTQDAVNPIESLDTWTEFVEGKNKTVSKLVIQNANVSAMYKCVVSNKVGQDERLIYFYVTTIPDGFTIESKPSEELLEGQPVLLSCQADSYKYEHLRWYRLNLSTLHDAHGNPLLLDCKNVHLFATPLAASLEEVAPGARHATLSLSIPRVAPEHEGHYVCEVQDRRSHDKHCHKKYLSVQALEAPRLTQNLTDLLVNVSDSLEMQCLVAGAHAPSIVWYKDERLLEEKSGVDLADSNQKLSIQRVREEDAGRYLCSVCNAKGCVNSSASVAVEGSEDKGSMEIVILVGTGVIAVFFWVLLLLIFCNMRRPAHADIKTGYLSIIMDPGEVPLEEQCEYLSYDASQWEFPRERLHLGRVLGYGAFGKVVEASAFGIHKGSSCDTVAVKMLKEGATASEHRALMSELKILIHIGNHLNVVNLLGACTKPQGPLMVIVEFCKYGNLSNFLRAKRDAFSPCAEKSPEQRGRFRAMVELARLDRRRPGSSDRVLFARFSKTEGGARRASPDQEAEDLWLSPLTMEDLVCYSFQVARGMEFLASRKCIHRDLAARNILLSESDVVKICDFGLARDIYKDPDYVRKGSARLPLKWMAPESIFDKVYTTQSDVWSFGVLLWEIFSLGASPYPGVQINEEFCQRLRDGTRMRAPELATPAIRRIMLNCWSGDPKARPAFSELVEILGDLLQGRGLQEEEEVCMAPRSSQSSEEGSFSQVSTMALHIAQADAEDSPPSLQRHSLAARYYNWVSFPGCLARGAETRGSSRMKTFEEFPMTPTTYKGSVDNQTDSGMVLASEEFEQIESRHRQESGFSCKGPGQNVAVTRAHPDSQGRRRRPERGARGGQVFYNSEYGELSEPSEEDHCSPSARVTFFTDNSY
T12 sequence (Q13535 whole entry): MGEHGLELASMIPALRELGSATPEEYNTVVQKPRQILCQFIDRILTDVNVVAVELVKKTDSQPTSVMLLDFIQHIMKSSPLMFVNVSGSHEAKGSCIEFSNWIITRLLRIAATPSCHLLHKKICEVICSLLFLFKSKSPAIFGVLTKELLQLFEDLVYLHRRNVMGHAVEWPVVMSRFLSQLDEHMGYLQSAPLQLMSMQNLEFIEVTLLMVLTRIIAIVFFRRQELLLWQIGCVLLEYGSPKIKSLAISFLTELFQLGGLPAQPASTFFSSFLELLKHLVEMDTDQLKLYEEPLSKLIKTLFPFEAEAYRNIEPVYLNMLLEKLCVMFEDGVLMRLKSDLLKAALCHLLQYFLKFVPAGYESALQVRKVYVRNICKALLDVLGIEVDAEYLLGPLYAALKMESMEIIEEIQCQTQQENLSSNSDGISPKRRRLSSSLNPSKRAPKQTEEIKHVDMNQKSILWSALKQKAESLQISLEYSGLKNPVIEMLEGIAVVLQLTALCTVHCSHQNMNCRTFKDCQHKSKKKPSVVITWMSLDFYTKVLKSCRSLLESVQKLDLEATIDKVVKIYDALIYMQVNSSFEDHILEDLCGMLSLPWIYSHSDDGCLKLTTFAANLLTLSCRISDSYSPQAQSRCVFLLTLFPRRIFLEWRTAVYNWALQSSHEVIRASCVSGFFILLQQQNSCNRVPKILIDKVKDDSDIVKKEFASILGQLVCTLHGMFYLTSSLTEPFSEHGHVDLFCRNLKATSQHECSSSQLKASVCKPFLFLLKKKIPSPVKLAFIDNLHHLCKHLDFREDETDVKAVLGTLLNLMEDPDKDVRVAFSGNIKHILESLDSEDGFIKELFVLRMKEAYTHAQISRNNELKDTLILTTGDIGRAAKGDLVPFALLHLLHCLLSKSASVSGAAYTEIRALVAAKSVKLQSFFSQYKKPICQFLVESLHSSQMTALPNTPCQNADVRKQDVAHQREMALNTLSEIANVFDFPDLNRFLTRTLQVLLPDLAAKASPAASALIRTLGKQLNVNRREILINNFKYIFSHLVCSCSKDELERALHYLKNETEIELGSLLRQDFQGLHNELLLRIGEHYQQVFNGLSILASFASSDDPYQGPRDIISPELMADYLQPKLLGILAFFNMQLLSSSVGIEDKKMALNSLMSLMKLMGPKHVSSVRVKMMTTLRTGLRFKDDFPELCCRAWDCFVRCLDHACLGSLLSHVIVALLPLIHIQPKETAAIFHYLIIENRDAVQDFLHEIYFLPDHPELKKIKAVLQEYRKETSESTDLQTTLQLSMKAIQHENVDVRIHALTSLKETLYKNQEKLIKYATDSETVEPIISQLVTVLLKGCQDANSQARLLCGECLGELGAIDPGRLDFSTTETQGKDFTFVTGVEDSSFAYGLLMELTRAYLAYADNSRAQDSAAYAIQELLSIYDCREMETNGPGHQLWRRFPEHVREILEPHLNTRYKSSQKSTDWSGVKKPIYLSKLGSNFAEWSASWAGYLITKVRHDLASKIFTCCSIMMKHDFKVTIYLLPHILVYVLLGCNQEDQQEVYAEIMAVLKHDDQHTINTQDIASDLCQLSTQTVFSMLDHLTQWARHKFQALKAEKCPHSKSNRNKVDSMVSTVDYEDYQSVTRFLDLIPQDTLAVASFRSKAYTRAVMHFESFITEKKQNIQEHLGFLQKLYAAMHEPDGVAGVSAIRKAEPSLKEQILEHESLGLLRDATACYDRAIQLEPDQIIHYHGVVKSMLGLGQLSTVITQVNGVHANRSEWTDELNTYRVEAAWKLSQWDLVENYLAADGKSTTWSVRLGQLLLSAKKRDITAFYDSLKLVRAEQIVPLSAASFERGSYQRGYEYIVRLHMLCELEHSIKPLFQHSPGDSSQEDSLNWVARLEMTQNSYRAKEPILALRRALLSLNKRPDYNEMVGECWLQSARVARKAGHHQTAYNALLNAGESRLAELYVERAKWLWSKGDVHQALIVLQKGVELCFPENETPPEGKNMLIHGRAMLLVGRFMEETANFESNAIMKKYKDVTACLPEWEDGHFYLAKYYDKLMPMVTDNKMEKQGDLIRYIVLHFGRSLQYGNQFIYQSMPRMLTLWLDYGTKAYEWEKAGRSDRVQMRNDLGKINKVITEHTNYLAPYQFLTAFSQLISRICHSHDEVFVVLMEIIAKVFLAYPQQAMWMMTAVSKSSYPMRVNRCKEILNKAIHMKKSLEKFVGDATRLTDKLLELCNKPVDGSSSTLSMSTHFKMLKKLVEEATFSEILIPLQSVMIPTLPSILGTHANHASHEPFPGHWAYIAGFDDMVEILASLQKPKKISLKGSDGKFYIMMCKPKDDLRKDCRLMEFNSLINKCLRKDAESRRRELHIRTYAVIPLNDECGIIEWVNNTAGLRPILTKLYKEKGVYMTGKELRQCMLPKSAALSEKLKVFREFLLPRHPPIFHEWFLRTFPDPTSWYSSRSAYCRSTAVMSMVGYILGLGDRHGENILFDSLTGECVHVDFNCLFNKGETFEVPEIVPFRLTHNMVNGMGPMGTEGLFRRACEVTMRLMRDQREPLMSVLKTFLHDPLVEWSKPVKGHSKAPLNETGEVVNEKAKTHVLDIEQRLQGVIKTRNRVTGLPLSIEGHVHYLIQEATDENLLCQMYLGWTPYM
T12 sequence (Q8WXE1 whole entry partner): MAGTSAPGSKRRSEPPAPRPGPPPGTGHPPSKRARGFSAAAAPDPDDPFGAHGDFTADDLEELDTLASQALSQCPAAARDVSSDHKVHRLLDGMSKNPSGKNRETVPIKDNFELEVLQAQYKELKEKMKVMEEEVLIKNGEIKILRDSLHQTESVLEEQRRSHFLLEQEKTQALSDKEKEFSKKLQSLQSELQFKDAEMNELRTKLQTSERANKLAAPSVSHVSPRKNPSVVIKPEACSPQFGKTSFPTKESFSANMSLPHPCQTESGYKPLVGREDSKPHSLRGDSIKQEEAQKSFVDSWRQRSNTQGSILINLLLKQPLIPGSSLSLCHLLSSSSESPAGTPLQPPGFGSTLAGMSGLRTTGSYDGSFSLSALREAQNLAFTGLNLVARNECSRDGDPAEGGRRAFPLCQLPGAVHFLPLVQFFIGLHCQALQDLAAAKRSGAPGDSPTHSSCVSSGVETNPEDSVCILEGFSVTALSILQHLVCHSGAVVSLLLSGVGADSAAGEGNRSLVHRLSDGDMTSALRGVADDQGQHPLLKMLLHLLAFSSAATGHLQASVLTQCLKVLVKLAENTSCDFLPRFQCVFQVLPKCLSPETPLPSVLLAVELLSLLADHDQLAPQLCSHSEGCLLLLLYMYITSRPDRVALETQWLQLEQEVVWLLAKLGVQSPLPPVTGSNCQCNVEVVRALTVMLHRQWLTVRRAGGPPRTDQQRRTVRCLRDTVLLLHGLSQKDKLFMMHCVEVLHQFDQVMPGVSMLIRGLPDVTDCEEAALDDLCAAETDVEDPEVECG
T5 sequence (O43318 1-303 limits assumed): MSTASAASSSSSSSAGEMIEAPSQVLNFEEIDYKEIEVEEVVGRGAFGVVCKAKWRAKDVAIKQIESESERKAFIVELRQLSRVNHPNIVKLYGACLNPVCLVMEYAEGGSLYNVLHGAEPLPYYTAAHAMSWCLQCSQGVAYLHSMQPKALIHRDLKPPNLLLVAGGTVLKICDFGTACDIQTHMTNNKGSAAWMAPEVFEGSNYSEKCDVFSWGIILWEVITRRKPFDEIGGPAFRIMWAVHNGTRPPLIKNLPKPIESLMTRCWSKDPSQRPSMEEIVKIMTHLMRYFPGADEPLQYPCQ

O=C(N/N=C1\CCc2c(Cl)ccc(O)c21)c1cccc(S(=O)(=O)N2CCOCC2)c1 [ZY0511, (E)‐N'‐(2, 3‐dihydro‐1H‐inden‐1‐ylidene) benzohydrazides]
activation at 1 µM (Axl): 3% | inhibition at 1 µM (PKCι): 2% | inhibition at 1 µM (MST3): 35% | activation at 1 µM (ALK): 23% | inhibition at 1 µM (TAK1): 1% | inhibition at 1 µM (Hck): 29% | inhibition at 1 µM (PKCµ): 10% | inhibition at 1 µM (PKBα): 4% | inhibition at 1 µM (CK1γ2): 13% | inhibition at 1 µM (B-Raf (V599E)): 51% | activation at 1 µM (ZAP-70): 4% | pIC50 (ATR/ATRIP): 5.02 | inhibition at 1 µM (ATR/ATRIP; [2]): 62% | activation at 1 µM (Ron): 7% | Activation rate (EGFR (T790M, L858R)): 2% | pIC50 (ATM): 5.01 | inhibition at 1 µM (Yes): 0% | Activation rate (EGFR (T790M)): 5% | activation at 1 µM (CDK1/CyclinB): 3% | activation at 1 µM (TrkA): 3% | inhibition at 1 µM (Met): 20% | inhibition at 1 µM (EGFR (L861Q)): 6% | Activation rate (CHK1): 1% | inhibition at 1 µM (PKD2): 2% | inhibition at 1 µM (Pim-1): 15% | activation at 1 µM (PKCα): 4% | activation at 1 µM (cKit): 14% | inhibition at 1 µM (ROCK-I): 11% | activation at 1 µM (Wee1): 11% | inhibition at 1 µM (TrkC): 7% | activation at 1 µM (FGFR1): 1% | activation at 1 µM (cKit (D816H)): 2% | pIC50 (Flt4): < 5.00 | inhibition at 1 µM (Flt4; [2]): 62% | inhibition at 1 µM (Fes): 24% | activation at 1 µM (EphB4): 5% | activation at 1 µM (IKKα): 13% | inhibition at 1 µM [1]: 6% | activation at 1 µM (ErbB2): 25% | inhibition at 1 µM (Flt3): 8% | inhibition at 1 µM (Bmx): 17% | inhibition at 1 µM (ZIPK): 6% | activation at 1 µM (MAPK2): 16%
